PubChem BioAssay (NCI)
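In this assay, cells in 96-well plates receive the compound at five concentrations for 48 hours. Endpoints are linearly interpolated between the surrounding concentrations. The concentration for full growth arrest is given as TGI.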

Columns and labels:
Experiment in all cases: NCI-60 cell line screen, 48 h
[1] = tested on: NCI-H460 lung
[2] = tested on: U251 CNS
[3] = tested on: TK-10 renal
[4] = tested on: SF-268 CNS
[5] = tested on: OVCAR-3 ovarian
[6] = tested on: HCT-116 colon
[7] = tested on: CCRF-CEM leukemia
[8] = tested on: RXF 393 renal
[9] = tested on: LOX IMVI melanoma
[10] = tested on: UACC-257 melanoma
[11] = tested on: OVCAR-4 ovarian
[12] = tested on: COLO 205 colon
[13] = tested on: HS 578T breast
[14] = tested on: A498 renal
[15] = tested on: 786-0 renal
[16] = tested on: EKVX NSCLC
[17] = tested on: HCT-15 colon
[18] = tested on: SF-539 CNS
[19] = tested on: SW-620 colon
[20] = tested on: OVCAR-5 ovarian
[21] = tested on: MCF7 breast
[22] = tested on: SK-MEL-28 melanoma
[23] = tested on: MDA-MB-435
[24] = tested on: SF-295 CNS
[25] = tested on: T-47D breast
[26] = tested on: K-562 leukemia
[27] = tested on: NCI/ADR-RES ovarian
[28] = tested on: ACHN renal
[29] = tested on: RPMI-8226 leukemia
[30] = tested on: SK-OV-3 ovarian
[31] = tested on: MALME-3M melanoma
[32] = tested on: NCI-H23 lung
[33] = tested on: A549 NSCLC
[34] = tested on: NCI-H522 lung
[35] = tested on: OVCAR-8 ovarian
[36] = tested on: SR leukemia
[37] = tested on: PC-3 prostate
[38] = tested on: UACC-62 melanoma
[39] = tested on: SK-MEL-5 melanoma
[40] = tested on: MDA-MB-231 breast
[41] = tested on: MOLT-4 leukemia
[42] = tested on: HOP-62 NSCLC
[43] = tested on: BT-549 breast
[44] = tested on: IGROV1 ovarian
[45] = tested on: KM12 colon
[46] = tested on: DU-145 prostate
[47] = tested on: HL-60(TB) leukemia
[48] = tested on: HCC-2998 colon
[49] = tested on: SN12C renal

Measured: TGI

COC(=O)[C@@H](Cc1ccccc1)NNC(=O)OC(C)(C)C
> 100 µM: [1] | [2] | [3] | [4] | [5] | [6] | [7] | [8] | [9] | [10] | [11] | [12] | [13] | [14] | [15] | [16] | [17] | [18] | [19] | [20] | [21] | [22] | [23] | [24] | [25] | [26] | [27] | [28] | [29] | [30] | [31] | [32] | [33] | [34] | [35] | [36] | [37] | [38] | [39] | [40] | [41] | [42] | [43] | [44] | [45] | [46] | [47] | [48] | [49]
